Experimental data: article PMC6539891, “Indole-Based Hydrazones Containing A Sulfonamide Moiety as Selective Inhibitors of Tumor-Associated Human Carbonic Anhydrase Isoforms IX and XII” (International Journal of Molecular Sciences, 2019)

Experiments:
hCA II = target: T1, hCA II (Homo sapiens, UniProt P00918); test: stopped-flow CO2 hydration assay; format: biochemical
T1 construct: gene CA2; recombinant from E. coli; cytosolic isoform
Description: stopped-flow CO2 hydration assay on hCA II

hCA IX = target: T2, hCA IX (Homo sapiens, UniProt Q16790); test: stopped-flow CO2 hydration assay; format: biochemical; details: read-out: KI^* (nM) / hCAIX
T2 construct: gene CA9; recombinant from E. coli; transmembrane isoform with extracellular catalytic domain
Description: stopped-flow CO2 hydration assay on hCA IX

hCA I = target: T3, hCA I (Homo sapiens, UniProt P00915); test: stopped-flow CO2 hydration assay; format: biochemical
T3 construct: gene CA1; recombinant from E. coli; cytosolic isoform
Description: stopped-flow CO2 hydration assay on hCA I

hCA XII = target: T4, hCA XII (Homo sapiens, UniProt O43570); test: stopped-flow CO2 hydration assay; format: biochemical
T4 construct: gene CA12; recombinant from E. coli; transmembrane isoform with extracellular catalytic domain
Description: stopped-flow CO2 hydration assay on hCA XII

[1] = stopped-flow CO2 hydration assay; format: biochemical, Homo sapiens; details: read-out: KI^* (nM) / hCA I

T4 sequence (O43570 30-289 limits assumed): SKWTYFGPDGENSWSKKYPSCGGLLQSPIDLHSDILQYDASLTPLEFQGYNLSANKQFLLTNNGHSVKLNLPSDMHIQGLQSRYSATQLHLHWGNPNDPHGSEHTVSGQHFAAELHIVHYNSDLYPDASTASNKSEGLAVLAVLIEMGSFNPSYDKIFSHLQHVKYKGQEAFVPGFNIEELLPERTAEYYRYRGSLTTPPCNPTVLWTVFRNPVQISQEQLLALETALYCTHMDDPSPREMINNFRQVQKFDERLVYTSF
T3 sequence (P00915 2-261): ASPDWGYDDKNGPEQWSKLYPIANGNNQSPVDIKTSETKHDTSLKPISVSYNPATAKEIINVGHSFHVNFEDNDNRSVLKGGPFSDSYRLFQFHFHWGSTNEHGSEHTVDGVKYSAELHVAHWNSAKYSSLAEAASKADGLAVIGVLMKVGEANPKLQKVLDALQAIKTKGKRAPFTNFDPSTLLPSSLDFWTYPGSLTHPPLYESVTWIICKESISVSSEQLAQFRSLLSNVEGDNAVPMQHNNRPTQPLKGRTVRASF

Ki (hCA II) [nM] | Ki (hCA IX) [nM] | Ki (hCA I) [nM] | Ki (hCA XII) [nM] | Ki [1] [nM] | Compound
5870 | 191 | > 10000 | 86.2 | – | NS(=O)(=O)c1ccc2[nH]c(C(=O)NN=C3CCCCC3)c(-c3ccccc3)c2c1 [compound 17, 2-[(2-Cyclohexylidenehydrazinyl)carbonyl]-3-phenyl-1H-indole-5-sulfonamide]
8940 | 419 | > 10000 | 139 | – | CC1CCC(=NNC(=O)c2[nH]c3ccc(S(N)(=O)=O)cc3c2-c2ccccc2)CC1 (stereo not drawn) [compound 18, 2-{[2-(4-Methylcyclohexylidene)hydrazinyl]carbonyl}-3-phenyl-1H-indole-5-sulfonamide]
1280 | 475 | > 10000 | 220 | – | CCC1CCC(=NNC(=O)c2[nH]c3ccc(S(N)(=O)=O)cc3c2-c2ccccc2)CC1 (stereo not drawn) [compound 19, 2-{[2-(4-Ethylcyclohexylidene)hydrazinyl]carbonyl}-3-phenyl-1H-indole-5-sulfonamide]
796 | 348 | > 10000 | 154 | – | CCCC1CCC(=NNC(=O)c2[nH]c3ccc(S(N)(=O)=O)cc3c2-c2ccccc2)CC1 (stereo not drawn) [compound 20, 2-{[2-(4-Propylcyclohexylidene)hydrazinyl]carbonyl}-3-phenyl-1H-indole-5-sulfonamide]
831 | 32.3 | > 10000 | 14.8 | – | NS(=O)(=O)c1ccc2[nH]c(C(=O)NN=C3CCC(c4ccccc4)CC3)c(-c3ccccc3)c2c1 (stereo not drawn) [compound 21, 2-{[2-(4-Phenylcyclohexylidene)hydrazinyl]carbonyl}-3-phenyl-1H-indole-5-sulfonamide]
3380 | 17.4 | > 10000 | 26.6 | – | CC(C)(C)C1CCC(=NNC(=O)c2[nH]c3ccc(S(N)(=O)=O)cc3c2-c2ccccc2)CC1 (stereo not drawn) [compound 22, 2-{[2-(4-tert-buthylcyclohexylidene)hydrazinyl]carbonyl}-3-phenyl-1H-indole-5-sulfonamide]
309 | 9.2 | > 10000 | 62.9 | – | CN1CCC(=NNC(=O)c2[nH]c3ccc(S(N)(=O)=O)cc3c2-c2ccccc2)CC1 [compound 23, 2-{[2-(1-Methylpiperidine-4-ylidene)hydrazinyl]carbonyl}-3-phenyl-1H-indole-5-sulfonamide]
372 | 11.7 | 7380 | 9.4 | – | NS(=O)(=O)c1ccc2[nH]c(C(=O)NN=C3CCN(Cc4ccccc4)CC3)c(-c3ccccc3)c2c1 [compound 24, 2-{[2-(1-Benzylpiperidine-4-ylidene)hydrazinyl]carbonyl}-3-phenyl-1H-indole-5-sulfonamide]

Continued, compound first:

Compound | Ki (hCA II) [nM] | Ki (hCA IX) [nM] | Ki (hCA I) [nM] | Ki (hCA XII) [nM] | Ki [1] [nM]
NS(=O)(=O)c1ccc2[nH]c(C(=O)NN=Cc3cccs3)c(-c3ccccc3)c2c1 [compound 4, 3-Phenyl-2-{[2-(thiophene-2-ylmethylidene)hydrazinyl]carbonyl}-1H-indole-5-sulfonamide] | > 10000 | 47.4 | 6670 | 4.5 | –
NS(=O)(=O)c1ccc2[nH]c(C(=O)NN=Cc3ccc(Br)s3)c(-c3ccccc3)c2c1 [compound 5, 2-({2-[(5-Bromothiophene-2-yl)methylidene]hydrazinyl}carbonyl)-3-phenyl-1H-indole-5-sulfonamide] | > 10000 | 48.4 | 9410 | 75.1 | –
Cn1cccc1C=NNC(=O)c1[nH]c2ccc(S(N)(=O)=O)cc2c1-c1ccccc1 [compound 6, 2-({2-[(1-Methyl-1H-pyrrol-2-yl)methylidene]hydrazinyl}carbonyl)-3-phenyl-1H-indole-5-sulfonamide] | > 10000 | 44.3 | 9570 | 64.4 | –
NS(=O)(=O)c1ccc2[nH]c(C(=O)NN=Cc3cccnc3)c(-c3ccccc3)c2c1 [compound 7, 3-Phenyl-2-{[2-(pyridine-3-ylmethylidene)hydrazinyl]carbonyl}-1H-indole-5-sulfonamide] | 8910 | 35.8 | 8590 | 1.4 | –
NS(=O)(=O)c1ccc2[nH]c(C(=O)NN=Cc3ccncc3)c(-c3ccccc3)c2c1 [compound 8, 3-Phenyl-2-{[2-(pyridine-4-ylmethylidene)hydrazinyl]carbonyl}-1H-indole-5-sulfonamide] | 3490 | 15.8 | 3130 | 6.6 | –
NS(=O)(=O)c1ccc2[nH]c(C(=O)NN=Cc3c[nH]c4ccccc34)c(-c3ccccc3)c2c1 [compound 9, 3-Phenyl-2-{[2-(1H-indole-3-ylmethylidene)hydrazinyl]carbonyl}-1H-indole-5-sulfonamide] | – | 207 | > 10000 | 77.3 | > 10000
C=NNC(=O)c1[nH]c2ccc(S(N)(=O)=O)cc2c1-c1ccccc1 [compound 10, 2-[(2-Methylidenehydrazinyl)carbonyl]-3-phenyl-1H-indole-5-sulfonamide] | 9370 | 32.9 | 7480 | 23.8 | –
CC=NNC(=O)c1[nH]c2ccc(S(N)(=O)=O)cc2c1-c1ccccc1 [compound 11, 2-[(2-Ethylidenehydrazinyl)carbonyl]-3-phenyl-1H-indole-5-sulfonamide] | 5870 | 12.9 | 4060 | 62.6 | –
CC(C)=NNC(=O)c1[nH]c2ccc(S(N)(=O)=O)cc2c1-c1ccccc1 [compound 12, 3-Phenyl-2-{[2-(propan-2-ylidene)hydrazinyl]carbonyl}-1H-indole-5-sulfonamide] | 8500 | 47.9 | 9560 | 87.9 | –
CCC(C)=NNC(=O)c1[nH]c2ccc(S(N)(=O)=O)cc2c1-c1ccccc1 [compound 13, 2-{[2-(Butan-2-ylidene)hydrazinyl]carbonyl}-3-phenyl-1H-indole-5-sulfonamide] | 8030 | 42.1 | 9620 | 92.4 | –
CCC(CC)=NNC(=O)c1[nH]c2ccc(S(N)(=O)=O)cc2c1-c1ccccc1 [compound 14, 2-{[2-(Pentan-3-ylidene)hydrazinyl]carbonyl}-3-phenyl-1H-indole-5-sulfonamide] | 6620 | 43.7 | 9250 | 9.4 | –
CC(CC(C)C)=NNC(=O)c1[nH]c2ccc(S(N)(=O)=O)cc2c1-c1ccccc1 [compound 15, 2-{[2-(4-Methylpentan-2-ylidene)hydrazinyl]carbonyl}-3-phenyl-1H-indole-5-sulfonamide] | 6560 | 188 | 8650 | 27.9 | –
NS(=O)(=O)c1ccc2[nH]c(C(=O)NN=C3CCCC3)c(-c3ccccc3)c2c1 [compound 16, 2-[(2-Cyclopentylidenehydrazinyl)carbonyl]-3-phenyl-1H-indole-5-sulfonamide] | 5960 | 476 | > 10000 | 97.2 | –
